Measurements from patent US5179105A, “Phenoxyacetic acid compounds, method for production thereof, and pharmaceutical preparations containing same” (Terumo Kabushiki Kaisha, priority 1990, dated 1993).

Tests used:
Parameters in all cases: species or system Hartley type male guinea pigs
thromboxane A2 = assay: in vitro antagonistic action to thromboxane A2 (U-46619-induced shrinkage of excised bronchial segments); details: guinea pig bronchial segments, U-46619 10^-7; read-out: antagonistic action to Tx A2 (IC50)
Method: (§1) The IC50 values indicative of the in vitro antagonistic actions of the compounds of this invention to thromboxane A2 and leukotriene D4 were determined by the use of the following test system.
(§2) Bronchial segments and ileal segments excised from Hartley type male guinea pigs 350 to 450 g in body weight were suspended under respective loads of 0.3 g and 0.5 g in Magnus baths containing Tyrode solution and kept exposed to passage therethrough of a mixed gas consisting of 95% of oxygen and 5% of carbon dioxide. After the suspended segments were stabilized for about one hour, U-46619 (equivalent to thromboxane A2, produced by Kaiman K. K.) was added in a concentration of 10^-7 to the bath containing the bronchial segments and leukotriene D4 (produced by Wako Pure Chemicals Co., Ltd.) in a concentration of 10^-8 M to the bath containing the […] contrast to the amounts of shrinkage produced in the bronchial segments and ileal segments, the amounts of shrinkage produced by U-46619 in the bronchial segments and the amounts of shrinkage produced by leukotriene D4 in the ileal segments both in the presence of the compounds of this invention added in varying concentrations were measured. The IC50 values were computed based on the results of the measurement.

leukotriene D4 [1] = assay: in vitro antagonistic action to leukotriene D4 (LTD4-induced shrinkage of excised ileal segments); details: guinea pig ileal segments, leukotriene D4 10^-8 M
Method: as §1, §2

leukotriene D4 [2] = assay: in vitro antagonistic action to leukotriene D4 (LTD4-induced shrinkage of excised bronchial segments); details: guinea pig bronchial segments, leukotriene D4 10^-8 M
Method: as §1, §2

O=C(O)COc1ccc(CCCS(=O)(=O)c2ccc(Cl)cc2)cc1NC(=O)c1ccc(OCc2ccc3ccccc3n2)cc1
IC50 (thromboxane A2): 26 nM | IC50 (leukotriene D4 [1]): 370 nM

CCCc1c(OCC(=O)Nc2cc(CCCS(=O)(=O)c3ccc(Cl)cc3)ccc2OCC(=O)O)ccc(C(C)=O)c1O
IC50 (thromboxane A2): 4.5 nM | IC50 (leukotriene D4 [1]): 3800 nM

O=C(O)COc1ccc(CCCS(=O)(=O)c2ccc(Cl)cc2)cc1NC(=O)c1cccc(OCc2ccc3ccccc3n2)c1 [drawing 22]
IC50 (thromboxane A2): 30 nM | IC50 (leukotriene D4 [2]): 150 nM

CCCc1c(OCCCC(=O)Nc2cc(CCCS(=O)(=O)c3ccc(Cl)cc3)ccc2OCC(=O)O)ccc(C(C)=O)c1O
IC50 (thromboxane A2): 50 nM | IC50 (leukotriene D4 [1]): 430 nM | IC50 (leukotriene D4 [2]): 70 nM

O=C(O)COc1ccc(CCCS(=O)(=O)c2ccc(Cl)cc2)cc1NC(=O)c1cccc(OCc2ccc3ccccc3n2)c1 [drawing 21]
IC50 (thromboxane A2): 57 nM | IC50 (leukotriene D4 [1]): 1.3 nM | IC50 (leukotriene D4 [2]): 4 nM
